In US11697639B2, “Quaternary ammonium salt compound, preparation method therefor and use thereof” (WEST CHINA HOSPITAL, SICHUAN UNIVERSITY, priority 2018, dated 2023):

What was measured:
Assay type in all cases: in vivo
back skin of rat = assay: Local anesthetic effect by subcutaneous infiltration in rat back skin (Von Frey 100 g); details: 0.5 mL in saline, compound 6 mmol/L, bupivacaine 23 mmol/L, 10 rats per compound
Description: After the back of rat weighing 250-300 g was shaved and disinfected, a circle with a diameter of about 1.5 cm was drawn on the side of the exposed back, and the circle is divided into 6 equal parts. […] Among the Von Frey fiber yarns, the one with a strength of 100 g was bound to the needle for local skin stimulation. One minute After the drug was injected, the above method was used to stimulate in 6 divisions. […] If back skin contraction was observed, the local anesthetic effect was considered as loss. […] Each compound was tested with 10 rats.

rat's sciatic nerve [1] = assay: Rat sciatic nerve block, motor function by Postural Extensor Thrust (PET); details: 0.5 mL injected near sciatic nerve, test drugs 20 mmol/mL in distilled water, lidocaine 2%, levobupivacaine 0.75%
Description: (§1) For the dosage, the lidocaine group is 2% aqueous solution, the levobupivacaine group is 0.75% aqueous solution, and test drug groups are all distilled water solution at the concentration of 20 mmol/mL.
(§2) The injection volume for each rat or the control was 0.5 mL, which was guided by a nerve locator and injected near the rat's sciatic nerve. Using von Frey stimulator, the rats were stimulated the soles of the feet in the injected side, to observe the effect of local anesthesia. Meanwhile, Postural Extensor Thrust (PET) was used to evaluate the motor function of the rat: the rat was lifted vertically and the hindlimb in the injected side pedaled on the platform of the electronic balance. […] When the limb was completely paralyzed, the reading was the limb's own weight, about 20 g. If the measured value was more than half of the difference between the baseline and the limb weight, the motor function was regarded as recovery, and if the value was less than or equal to this difference, the motor function was regarded as loss.

rat's sciatic nerve [2] = assay: Rat sciatic nerve block, sensory block tested with von Frey stimulator; details: 0.5 mL injected near sciatic nerve, test drugs 20 mmol/mL in distilled water, lidocaine 2%, levobupivacaine 0.75%
Description: as §1, §2

In the case of `CCC[N+](CC)(CCCCCCCCN1CCCCC1C(=O)Nc1c(C)cccc1C)CC(=O)Nc1c(C)ccc(Br)c1C` (centres unmarked) [example 11], the “Lasting time of local anesthesia (Median)” value (back skin of rat) is reported as 54 h, the “Local anesthesia onset time (Median)” value (back skin of rat) is reported as 1 min and the “Time of motor block (Median)” value (rat's sciatic nerve [1]) is reported as 11 h. For the same compound, the “Local anesthesia onset time (Median)” value (rat's sciatic nerve [2]; 8 rats per group) was 1 min and the “Time of sensory block (Median)” value (rat's sciatic nerve [2]; von Frey) was 34 h.
